According to patent US20060204502A1 (priority 2004, published 2006):

Assays:
Assay type in all cases: cell-based
[1] = test system: Human Colon Carcinoma HT29; experiment: MTT growth inhibitory assay, HT29; conditions: HT29 cells, A3 antagonist at 1 μg/ml
Experimental: (§1) Interpretation of the EF is dependent upon the concentrations of A3 receptor antagonist tested. For example, when using very low concentrations of A3 receptor antagonist, any EF above 1.0 is synergistic if the A3 receptor antagonist concentration is below the threshold of cell growth inhibition.
(§2) The cells are sub-cultured twice a week.
(§3) Vinblastine sulfate salt was obtained from Sigma Chemical Co., (V1377). Irinotecan was diluted with culture medium. All other agents were dissolved in 100% DMSO at appropriate concentrations. The DMSO stock solutions were diluted 100-fold with growth medium so that the final DMSO concentration was 1%.

[2] = test system: Human Lung Carcinoma SKMES; experiment: MTT growth inhibitory assay, SKMES; conditions: SKMES cells, A3 antagonist at 1 μg/ml
Experimental: as §1, §2, §3

[3] = test system: Human Pancreatic Cancer Panc-1; experiment: MTT growth inhibitory assay, Panc-1; conditions: Panc-1 cells, A3 antagonist at 1 μg/ml
Experimental: as §1, §2, §3

Structure (SMILES): CCCn1cc2c(nc(NC(=O)Nc3ccc(OC)cc3)n3nc(-c4ccco4)nc23)n1 [MRE3008F20, 5-[[(4-Methoxyphenyl)amino]carbonyl]amino-8-propyl-2-(2-furyl)-pyrazolo[4,3-e]1,2,4-triazolo[1,5-c]pyrimidine]
- Enhancement Factor ([1]; enhancement of docetaxel IC50): 15.0
- Enhancement Factor ([1]; enhancement of doxorubicin IC50): 1.6
- Enhancement Factor ([1]; enhancement of irinotecan IC50): 1.8
- Enhancement Factor ([1]; enhancement of paclitaxel IC50): 2.9
- Enhancement Factor ([2]; enhancement of docetaxel IC50): 3.6
- Enhancement Factor ([2]; enhancement of irinotecan HCL IC50): 2.1
- Enhancement Factor ([2]; enhancement of paclitaxel IC50): 4.1
- Enhancement Factor ([2]; enhancement of vinblastine IC50): 1.2
- Enhancement Factor ([3]; enhancement of docetaxel IC50): 1.8
- Enhancement Factor ([3]; enhancement of paclitaxel IC50): 1.9
